Laboratory results taken from publication PMC4897788, “Design, biological evaluation and 3D QSAR studies of novel dioxin-containing pyrazoline derivatives with thiourea skeleton as selective HER-2 inhibitors” (Scientific Reports, 2016).

What was measured:
[1] = system: MDA-MB-453 human breast cancer cell line; assay: Anti-proliferation assay (MTT), MDA-MB-453; assay type: cell-based; conditions: 24 h
Method: (§1) MCF-7 human breast cancer cells was cultured in DMEM/10% fetal bovine serum, in 5% CO2 water saturated atmosphere at 37 °C. MDA-MB-453 human breast cancer cells was cultured in L-15 medium in 100% air at 37 °C. Cell suspensions (10000/mL) were prepared and 100 μL/well dispensed into 96-well plates (Costar) giving 1000 cells/well. The plates were returned to the incubator for 24 h to allow the cells to reattach. These compounds were initially prepared at 20 mM in DMSO. Aliquots (200 μL) were diluted into 20 mL culture medium giving 200 μM, and 10 serial dilutions of 3× prepared. Aliquots (100 μL) of each dilution were added to the wells, giving doses ranging from 100 μM to 0.005 μM. After a further incubated at 37 °C for 24 h in a humidified atmosphere with 5% CO2, the cell viability was assessed by the conventional 3-(4,5-dimethylthiazol-2-yl)-2,5-diphenyltetrazolium bromide (MTT) reduction assay and carried out strictly according to the manufacturer instructions (Sigma). The absorbance at 590 nm was recorded using LX300 Epson Diagnostic micro-plate reader. Then GI50 was calculated using SPSS 13.0 software.

[2] = system: MCF-7 human breast cancer cell line; assay: Anti-proliferation assay (MTT), MCF-7; assay type: cell-based; conditions: MCF7, 24 h
Method: as §1

[3] = target: EGFR (Homo sapiens, UniProt P00533); assay: EGFR autophosphorylation kinase assay (DELFIA/time-resolved fluorometry)
Method: (§2) A sequence that encodes (His)6 was located at the 5′ upstream to the HER-2 and EGFR sequences. Sf-9 cells were infected for 3 days for protein expression. Sf-9 cell pellets were solubilized at 0 °C in a buffer at pH 7.4 containing 50 mM HEPES, 10 mM NaCl, 1% Triton, 10 μM ammonium molybdate, 100 μM sodium vanadate, 10 μg/mL aprotinin, 10 μg/mL leupeptin, 10 μg/mL pepstatin, and 16 μg/mL benzamidine, HCl for 20 min followed by 20 min centrifugation. Crude extract supernatant was passed through an equilibrated Ni–NTA superflow packed column and washed with 10 mM and then 100 mM imidazole to remove nonspecifically bound material. Histidine-tagged proteins were eluted with 250 and 500 mM imidazole and dialyzed against 50 mM NaCl, 20 mM HEPES, 10% glycerol and 1 μg/mL each of aprotinin, leupeptin, and pepstatin for 2 h. The entire purification procedure was performed at 4 °C or on ice.
(§3) Both EGFR and HER-2 kinase assays were set up to assess the level of autophosphorylation based on DELFIA/Time-Resolved Fluorometry. […] Then, 10 μL of 5× buffer (containing 20 mM HEPES, 2 mM MnCl2, 100 μM Na3VO4, and 1 mM DTT) and 20 μL of 0.1 mM ATP-50 mM MgCl2 was added for 1 h. Positive and negative controls were included in each plate by incubation of enzyme with or without ATP-MgCl2. At the end of incubation, liquid was aspirated and plates were washed three times with wash buffer. A 75 μL (400 ng) sample of europium-labeled anti-phosphotyrosine antibody was added to each well for another 1 h of incubation. […] The IC50 was obtained from curves of percentage inhibition with eight concentrations of compound. As the contaminants in the enzyme preparation are fairly low, the majority of the signal detected by the anti-phosphotyrosine antibody is from EGFR or HER-2. The experiment was performed for three independent times and in triplicate each time.

[4] = target: HER-2 (Homo sapiens, UniProt P04626); assay: HER-2 autophosphorylation kinase assay (DELFIA/time-resolved fluorometry); conditions: for SI EGFR/HER-2: selectivity index, IC50 EGFR/IC50 HER-2
Sequence of HER-2 (P04626 676-1245): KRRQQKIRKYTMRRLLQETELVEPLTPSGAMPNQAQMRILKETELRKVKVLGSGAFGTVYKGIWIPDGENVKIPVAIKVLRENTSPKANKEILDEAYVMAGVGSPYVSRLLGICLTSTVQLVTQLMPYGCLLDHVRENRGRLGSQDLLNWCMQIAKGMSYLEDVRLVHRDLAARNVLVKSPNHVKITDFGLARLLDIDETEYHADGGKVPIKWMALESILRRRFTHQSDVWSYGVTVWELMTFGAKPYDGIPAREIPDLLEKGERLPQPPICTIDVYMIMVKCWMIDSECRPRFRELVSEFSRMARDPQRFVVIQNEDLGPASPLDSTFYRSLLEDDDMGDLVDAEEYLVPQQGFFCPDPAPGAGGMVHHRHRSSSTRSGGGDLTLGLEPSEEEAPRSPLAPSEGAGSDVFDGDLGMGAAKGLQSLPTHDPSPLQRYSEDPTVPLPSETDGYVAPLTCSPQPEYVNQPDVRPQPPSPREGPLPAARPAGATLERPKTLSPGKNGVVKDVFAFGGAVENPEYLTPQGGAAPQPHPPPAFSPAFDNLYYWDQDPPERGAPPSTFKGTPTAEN
Method: as §2, §3

Sequence of EGFR (P00533 669-1210): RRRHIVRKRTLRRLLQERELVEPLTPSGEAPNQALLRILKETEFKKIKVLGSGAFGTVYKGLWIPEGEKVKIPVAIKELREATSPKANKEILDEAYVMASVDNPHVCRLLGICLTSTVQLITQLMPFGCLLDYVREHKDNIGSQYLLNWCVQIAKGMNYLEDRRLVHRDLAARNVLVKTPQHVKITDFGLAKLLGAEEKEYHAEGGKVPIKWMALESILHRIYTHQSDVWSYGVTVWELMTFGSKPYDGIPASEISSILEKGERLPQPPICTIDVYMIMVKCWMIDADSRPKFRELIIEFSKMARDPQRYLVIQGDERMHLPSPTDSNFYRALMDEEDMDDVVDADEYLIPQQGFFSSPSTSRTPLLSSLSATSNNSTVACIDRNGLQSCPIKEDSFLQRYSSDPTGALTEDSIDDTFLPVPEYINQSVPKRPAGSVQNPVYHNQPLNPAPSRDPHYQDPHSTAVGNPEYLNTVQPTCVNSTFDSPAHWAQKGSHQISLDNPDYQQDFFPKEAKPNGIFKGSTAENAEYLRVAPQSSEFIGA

SMILES | GI50 [1] [µM] | GI50 [2] [µM] | melting point [°C] | IC50 [3] [µM] | IC50 [4] [µM] | SI EGFR/HER-2 [4]
NC(=S)N1N=C(c2ccc3c(c2)OCCO3)CC1c1ccccc1 (stereo not shown) [Compound C1, 3-(2,3-dihydrobenzo[b][1,4]dioxin-6-yl)-5-phenyl-4,5-dihydro-1H-pyrazole-1-carbothioamide] | 63.4 ± 6.12 | 10 ± 0.91 | 166 to 168 | 21.9 ± 2.03 | 16 ± 1.45 | 1.36
NC(=S)N1N=C(c2ccc3c(c2)OCCO3)CC1c1ccc(Cl)cc1 (stereo not shown) [Compound C12, 5-(4-chlorophenyl)-3-(2,3-dihydrobenzo[b][1,4]dioxin-6-yl)-4,5-dihydro-1H-pyrazole-1-carbothioamide] | 5.31 ± 0.48 | 33.9 ± 3.21 | 231 to 233 | 53.8 ± 5.12 | 0.84 ± 0.07 | 64.1
NC(=S)N1N=C(c2ccc3c(c2)OCCO3)CC1c1ccc2ccccc2c1 (stereo not shown) [Compound C3, 3-(2,3-dihydrobenzo[b][1,4]dioxin-6-yl)-5-(naphthalen-2-yl)-4,5-dihydro-1H-pyrazole-1-carbothioamide] | 19.9 ± 1.84 | 5.3 ± 0.49 | 204 to 206 | 4.42 ± 0.35 | 7.18 ± 0.65 | 0.62
NC(=S)N1N=C(c2ccc3c(c2)OCCO3)CC1c1ccc(I)cc1 (stereo not shown) [Compound C14, 3-(2,3-dihydrobenzo[b][1,4]dioxin-6-yl)-5-(4-iodophenyl)-4,5-dihydro-1H-pyrazole-1-carbothioamide] | 9.12 ± 0.89 | 135 ± 11.6 | 259 to 261 | 84.3 ± 7.81 | 1.23 ± 0.1 | 68.5
C#Cc1cccc(Nc2ncnc3cc(OCCOC)c(OCCOC)cc23)c1 [Erlotinib, reference compound] | 1.56 ± 0.14 | 0.08 ± 0.006 | – | – | – | –
COc1cccc(C2CC(c3ccc4c(c3)OCCO4)=NN2C(N)=S)c1 (stereo not shown) [Compound C5, 3-(2,3-dihydrobenzo[b][1,4]dioxin-6-yl)-5-(3-methoxyphenyl)-4,5-dihydro-1H-pyrazole-1-carbothioamide] | 135 ± 11.1 | 57.2 ± 5.36 | 168 to 170 | 43.6 ± 4.1 | 86.5 ± 8.05 | 0.50
NC(=S)N1N=C(c2ccc3c(c2)OCCO3)CC1c1cccc(Cl)c1 (stereo not shown) [Compound C7, 5-(3-chlorophenyl)-3-(2,3-dihydrobenzo[b][1,4]dioxin-6-yl)-4,5-dihydro-1H-pyrazole-1-carbothioamide] | > 300 | 16.8 ± 0.98 | 246 to 248 | 9.45 ± 0.88 | 62.8 ± 5.67 | 0.15
NC(=S)N1N=C(c2ccc3c(c2)OCCO3)CC1c1ccc(F)cc1 (stereo not shown) [Compound C11, 3-(2,3-dihydrobenzo[b][1,4]dioxin-6-yl)-5-(4-fluorophenyl)-4,5-dihydro-1H-pyrazole-1-carbothioamide] | 11.9 ± 1.05 | 28.5 ± 2.8 | 235 to 237 | 47.8 ± 4.54 | 1.9 ± 0.15 | 25.2
NC(=S)N1N=C(c2ccc3c(c2)OCCO3)CC1c1c(F)cccc1F (stereo not shown) [Compound C18, 5-(2,6-difluorophenyl)-3-(2,3-dihydrobenzo[b][1,4]dioxin-6-yl)-4,5-dihydro-1H-pyrazole-1-carbothioamide] | 8.68 ± 0.84 | 15.2 ± 1.4 | 208 to 209 | 34 ± 3.08 | 0.96 ± 0.08 | 35.4

Now from value to compound:

GI50 [1] [µM] | GI50 [2] [µM] | melting point [°C] | IC50 [3] [µM] | IC50 [4] [µM] | SI EGFR/HER-2 [4] | SMILES
0.36 ± 0.03 | 5.99 ± 0.55 | 197 to 199 | 10.2 ± 0.94 | 0.13 ± 0.01 | 78.5 | NC(=S)N1N=C(c2ccc3c(c2)OCCO3)CC1c1ccc(OCc2ccccc2)cc1 (stereo not shown) [Compound C16, 5-(4-(benzyloxy)phenyl)-3-(2,3-dihydrobenzo[b][1,4]dioxin-6-yl)-4,5-dihydro-1H-pyrazole-1-carbothioamide]
1.69 ± 0.15 | 5.64 ± 0.52 | 247 to 249 | 8.63 ± 0.78 | 0.45 ± 0.04 | 19.2 | NC(=S)N1N=C(c2ccc3c(c2)OCCO3)CC1c1cccc(Br)c1 (stereo not shown) [Compound C8, 5-(3-bromophenyl)-3-(2,3-dihydrobenzo[b][1,4]dioxin-6-yl)-4,5-dihydro-1H-pyrazole-1-carbothioamide]
33.4 ± 2.95 | > 300 | 174 to 175 | 197 ± 18.5 | 12 ± 1.02 | 16.3 | NC(=S)N1N=C(c2ccc3c(c2)OCCO3)CC1c1ccco1 (stereo not shown) [Compound C19, 3-(2,3-dihydrobenzo[b][1,4]dioxin-6-yl)-5-(furan-2-yl)-4,5-dihydro-1H-pyrazole-1-carbothioamide]
0.03 ± 0.002 | 3.12 ± 0.24 | – | – | – | – | CS(=O)(=O)CCNCc1ccc(-c2ccc3ncnc(Nc4ccc(OCc5cccc(F)c5)c(Cl)c4)c3c2)o1 [Lapatinib, reference compound]
0.2 ± 0.02 | 4.95 ± 0.43 | 178 to 180 | 4.49 ± 0.41 | 0.06 ± 0.004 | 74.8 | NC(=S)N1N=C(c2ccc3c(c2)OCCO3)CC1c1cccc(OCc2ccccc2)c1 (stereo not shown) [Compound C6, 5-(3-(benzyloxy)phenyl)-3-(2,3-dihydrobenzo[b][1,4]dioxin-6-yl)-4,5-dihydro-1H-pyrazole-1-carbothioamide]
> 300 | 185 ± 17.8 | 169 to 171 | 59.3 ± 5.58 | 125 ± 10.2 | 0.47 | NC(=S)N1N=C(c2ccc3c(c2)OCCO3)CC1c1ccccc1F (stereo not shown) [Compound C4, 3-(2,3-dihydrobenzo[b][1,4]dioxin-6-yl)-5-(2-fluorophenyl)-4,5-dihydro-1H-pyrazole-1-carbothioamide]
2.2 ± 0.18 | 4.68 ± 0.42 | 214 to 216 | 2.94 ± 0.26 | 0.56 ± 0.05 | 5.25 | NC(=S)N1N=C(c2ccc3c(c2)OCCO3)CC1c1cccc2ccccc12 (stereo not shown) [Compound C2, 3-(2,3-dihydrobenzo[b][1,4]dioxin-6-yl)-5-(naphthalen-1-yl)-4,5-dihydro-1H-pyrazole-1-carbothioamide]
